Like-named read-outs stand apart in the source and are kept apart here.
Biological target: T1, mTLR9 (Mus musculus, UniProt Q9EQU3)
T1 construct: Splenocytes isolated from male C57/BL6 mice; from tissue; host or cells: splenocytes from the spleen of male C57BL/6 mice
T1 sequence (Q9EQU3 26-1032): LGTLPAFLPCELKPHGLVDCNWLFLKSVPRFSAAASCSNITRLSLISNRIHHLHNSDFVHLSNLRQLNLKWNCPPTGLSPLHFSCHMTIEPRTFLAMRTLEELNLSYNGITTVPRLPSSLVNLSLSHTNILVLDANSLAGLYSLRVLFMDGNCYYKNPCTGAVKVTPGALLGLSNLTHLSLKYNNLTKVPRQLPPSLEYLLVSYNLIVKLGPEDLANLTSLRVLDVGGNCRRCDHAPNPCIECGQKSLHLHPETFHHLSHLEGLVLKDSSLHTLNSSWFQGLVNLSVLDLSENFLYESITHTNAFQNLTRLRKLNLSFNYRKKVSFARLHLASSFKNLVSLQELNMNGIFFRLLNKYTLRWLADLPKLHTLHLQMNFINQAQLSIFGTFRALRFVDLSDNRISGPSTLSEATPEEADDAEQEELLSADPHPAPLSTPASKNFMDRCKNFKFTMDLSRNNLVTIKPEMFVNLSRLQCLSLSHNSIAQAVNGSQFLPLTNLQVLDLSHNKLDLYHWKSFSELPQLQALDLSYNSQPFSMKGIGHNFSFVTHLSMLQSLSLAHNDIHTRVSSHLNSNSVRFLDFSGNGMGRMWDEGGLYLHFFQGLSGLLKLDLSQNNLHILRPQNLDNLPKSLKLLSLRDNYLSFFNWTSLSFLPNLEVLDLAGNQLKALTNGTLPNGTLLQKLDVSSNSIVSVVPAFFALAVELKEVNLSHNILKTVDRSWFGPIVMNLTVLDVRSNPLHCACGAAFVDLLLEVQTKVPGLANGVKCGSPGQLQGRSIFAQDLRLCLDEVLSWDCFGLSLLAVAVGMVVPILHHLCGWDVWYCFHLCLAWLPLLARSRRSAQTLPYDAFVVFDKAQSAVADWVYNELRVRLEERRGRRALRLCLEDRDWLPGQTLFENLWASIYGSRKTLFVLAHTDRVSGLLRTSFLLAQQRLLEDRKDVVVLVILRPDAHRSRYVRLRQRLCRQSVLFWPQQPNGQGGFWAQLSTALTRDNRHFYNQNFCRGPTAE
Test: mTLR9 antagonism (IL-6 and TNF-α release assay) in mouse splenocytes, CpG ODN-2006 stimulated
Format: cell-based
Conditions: 1 μM, mouse splenocytes
In short: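 C57BL6 mouse splenocytes (0.2 million/well) pre-incubated 30 min at 37 °C with compounds (30 μM–1 nM, 0.3% DMSO), then stimulated with 1 μg/ml CpG ODN-2006 overnight at 37 °C/5% CO2. IL-6 and TNF-α in supernatant measured by ELISA; IC50 from % inhibition curves.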

[1] = IL-6 release, read-out: mTLR9 inhibitory activity (% at 1 μM), IL-6
[2] = TNF-α release, read-out: mTLR9 inhibitory activity (% at 1 μM), TNF-α

| Structure (SMILES) | inhibition at 1 µM [1] [%] | inhibition at 1 µM [2] [%] |
| --- | --- | --- |
| Cc1cc2[nH]c(CCCN3CCCCC3)cc2c(-c2ccc(N3CCN(C(C)C)CC3)cc2)n1 [Example C5, 4-[4-(4-isopropylpiperazin-1-yl)phenyl]-6-methyl-2-[3-(1-piperidyl)propyl]-1H-pyrrolo[3,2-c]pyridine] | 94 | 100 |
| Cc1cc2c(cc(CCCN3CCOCC3)n2C)c(-c2ccc(N3CCN(C(C)C)CC3)cc2)n1 [Example C6, 4-[3-[4-[4-(4-isopropylpiperazin-1-yl)phenyl]-1,6-dimethyl-pyrrolo[3,2-c]pyridin-2-yl]propyl]morpholine] | 100 | 100 |
